pIC50: −log10 of the molar value. “And” between values parts separate entries of the source, which are not always exact repeats. Equal values may be shown once.

Assay [1] addresses T1, c-Src kinase (human) (Homo sapiens, UniProt P12931).
T1 construct: purchased Upstate Biotechnology, Lake Placid, N.Y
Kind of assay: c-Src Kinase Assay. The format is biochemical. The settings on record: for pIC50: read-out: c-Src IC50 (in parentheses); for inhibition at 2 µM / c-Src % Inhibition: test concentration of 2 μM, multiple values are separate assay results; for c-Src % Inhibition: 2 µM. Summed up: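 Inhibition was read as 33P incorporation, counted on P30 filtermats, after a 40 min, 30° C reaction. Human c-Src acted on 100 μM Cdc2 peptide with 5 μM ATP (final), pH 7.0 MOPS/MgCl2. Values are percent inhibition at 2 μM compound, or IC50 where determined.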

The target of assay [2] is T2, HER-2 (Homo sapiens, UniProt P04626).
T2 construct: His6 with thrombin site (N); purchased Proqinase (Freiburg, Germany)
The experiment in a line: HER-2 Kinase Assay. The assay is classed as biochemical. The settings on record: for inhibition at 1 µM: test concentration of 1 μM; for pIC50: value in parentheses. Summed up: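 GST/HIS6-tagged HER-2 aa 679–1255 kinase with biotinylated polyGluTyr (1.5 ng/μL), 1 μM ATP plus γ-33P-ATP, Mg2+/Mn2+, DTT, Hepes pH 7.5; 1 h at 30 °C. Substrate phosphorylation captured on streptavidin scintillation plates after EDTA/PBS washes; values are % inhibition at 1 μM or IC50.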

T1 sequence (P12931 whole entry): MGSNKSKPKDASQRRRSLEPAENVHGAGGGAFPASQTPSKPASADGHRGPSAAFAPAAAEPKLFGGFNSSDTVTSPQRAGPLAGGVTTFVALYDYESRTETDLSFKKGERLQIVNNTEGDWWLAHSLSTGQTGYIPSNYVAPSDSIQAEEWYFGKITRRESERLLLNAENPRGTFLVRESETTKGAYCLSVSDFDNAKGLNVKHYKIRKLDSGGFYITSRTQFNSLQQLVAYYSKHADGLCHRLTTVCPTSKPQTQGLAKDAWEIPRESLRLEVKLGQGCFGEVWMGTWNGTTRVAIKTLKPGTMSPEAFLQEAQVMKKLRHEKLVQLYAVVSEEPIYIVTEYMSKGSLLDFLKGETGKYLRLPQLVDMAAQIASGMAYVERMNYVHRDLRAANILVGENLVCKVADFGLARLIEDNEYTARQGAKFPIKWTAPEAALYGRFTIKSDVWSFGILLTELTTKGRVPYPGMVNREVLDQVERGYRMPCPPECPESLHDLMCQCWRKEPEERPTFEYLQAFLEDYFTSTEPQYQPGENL
T2 sequence (P04626 679-1255): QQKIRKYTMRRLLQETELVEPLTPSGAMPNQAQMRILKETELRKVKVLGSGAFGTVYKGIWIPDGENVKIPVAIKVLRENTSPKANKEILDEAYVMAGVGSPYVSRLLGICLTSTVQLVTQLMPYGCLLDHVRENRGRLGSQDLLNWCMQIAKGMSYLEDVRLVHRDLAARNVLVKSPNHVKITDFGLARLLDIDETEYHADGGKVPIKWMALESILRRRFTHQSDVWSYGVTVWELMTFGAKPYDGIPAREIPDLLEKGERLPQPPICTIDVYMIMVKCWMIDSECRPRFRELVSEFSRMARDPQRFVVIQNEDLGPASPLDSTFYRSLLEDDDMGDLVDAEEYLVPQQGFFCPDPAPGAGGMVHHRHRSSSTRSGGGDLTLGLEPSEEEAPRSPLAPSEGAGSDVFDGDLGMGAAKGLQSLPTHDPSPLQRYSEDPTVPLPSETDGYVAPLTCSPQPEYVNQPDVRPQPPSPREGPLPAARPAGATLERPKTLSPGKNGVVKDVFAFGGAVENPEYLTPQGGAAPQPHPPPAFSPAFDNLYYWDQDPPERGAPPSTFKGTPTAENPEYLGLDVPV

By pIC50 is commonly meant −log10 of the IC50, conventionally taken in molar units. As usually defined, the inhibition is the change of the read-out against control, counted positive when it falls. On to `COc1cc(N2C(=O)Nc3c(C(=O)Nc4ccc(CN5CCCC5)cc4)sc4ncnc2c34)c(Cl)cc1Cl` [Cpd 43, 5-(2,4-dichloro-5-methoxy-phenyl)-4-oxo-4,5-dihydro-3H-1-thia-3,5,6,8-tetraaza-acenaphthylene-2-carboxylic acid (4-pyrrolidin-1-ylmethyl-phenyl)-amide], for which, in assay [1], the pIC50 was 5.38 and the inhibition at 2 µM turned out to be 53%. Also, the inhibition at 1 µM in assay [2] was determined as 21%.
For the compound `COc1ccc(Cl)c(N2C(=O)Nc3c(C(=O)Nc4ccc(OC)c(OC)c4)sc4ncnc2c34)c1` [Cpd 49, 5-(2-chloro-5-methoxy-phenyl)-4-oxo-4,5-dihydro-3H-1-thia-3,5,6,8-tetraaza-acenaphthylene-2-carboxylic acid (3,4-dimethoxy-phenyl)-amide], in assay [1], the pIC50 is less than 3.70 and the inhibition at 2 µM was 23%. The inhibition at 1 µM in assay [2] is -5%.
For `COc1ccc(Cl)c(N2C(=O)Nc3c(C(=O)Nc4ccc(OCCN5CCOCC5)c(OC)c4)sc4ncnc2c34)c1` [Cpd 50, 5-(2-chloro-5-methoxy-phenyl)-4-oxo-4,5-dihydro-3H-1-thia-3,5,6,8-tetraaza-acenaphthylene-2-carboxylic acid [3-methoxy-4-(2-morpholin-4-yl-ethoxy)-phenyl]-amide], in assay [1], the pIC50 is 5.09 and the inhibition at 2 µM was determined as 20%. Further, in assay [2], the inhibition at 1 µM is -5%.
As to `COc1ccc(Cl)c(N2C(=O)Nc3c(C(=O)Nc4ccc(CN5CCOCC5)cc4)sc4ncnc2c34)c1` [Cpd 51, 5-(2-chloro-5-methoxy-phenyl)-4-oxo-4,5-dihydro-3H-1-thia-3,5,6,8-tetraaza-acenaphthylene-2-carboxylic acid (4-morpholin-4-ylmethyl-phenyl)-amide], in assay [1], the pIC50 is 5.18 and the inhibition at 2 µM was 33%. In addition, the inhibition at 1 µM in assay [2] came to 28%.
As for `COC(=O)c1sc2ncnc3c2c1NC(=O)N3c1c(Cl)ccc2c1OCO2` [Cpd 54, 5-(5-chloro-benzo[1,3]dioxol-4-yl)-4-oxo-4,5-dihydro-3H-1-thia-3,5,6,8-tetraaza-acenaphthylene-2-carboxylic acid methyl ester], in assay [1], the pIC50 is 5.83 and the inhibition at 2 µM was 42%. Besides, the inhibition at 1 µM in assay [2] was 3%.
On the same counts, the results for `COc1cc(N2C(=O)Nc3c(C(=O)Nc4ccc(CN5CCN(C)CC5)cc4)sc4ncnc2c34)c(Cl)cc1Cl` [Cpd 60] are 5.10, 38% and 22%.
Regarding `O=C(Nc1ccc(CN2CCOCC2)cc1)c1sc2ncnc3c2c1NC(=O)N3c1c(Cl)ccc2c1OCO2` [Cpd 62, 5-(5-chloro-benzo[1,3]dioxol-4-yl)-4-oxo-4,5-dihydro-3H-1-thia-3,5,6,8-tetraaza-acenaphthylene-2-carboxylic acid (4-morpholin-4-ylmethyl-phenyl)-amide], the pIC50 was 7.12 in assay [1] and 6.28 in assay [2]. In addition, the inhibition at 2 µM in assay [1] is 83%.
For the compound `O=C(Nc1ccc(NCCCN2CCOCC2)nc1)c1sc2ncnc3c2c1NC(=O)N3c1cccc(Br)c1` [Cpd 64, 5-(3-bromo-phenyl)-4-oxo-4,5-dihydro-3H-1-thia-3,5,6,8-tetraaza-acenaphthylene-2-carboxylic acid [6-(3-morpholin-4-yl-propylamino)-pyridin-3-yl]-amide], in assay [1], the inhibition at 2 µM was -14%. Further, in assay [2], the inhibition at 1 µM amounted to 57% and the pIC50 was 6.35.
On the same counts, the results for `O=C(Nc1ccc(CN2CCCCC2)cc1)c1sc2ncnc3c2c1NC(=O)N3c1ccc(OCc2ccccn2)c(Cl)c1` [Cpd 89, 5-[3-chloro-4-(pyridin-2-ylmethoxy)-phenyl]-4-oxo-4,5-dihydro-3H-1-thia-3,5,6,8-tetraaza-acenaphthylene-2-carboxylic acid (4-piperidin-1-ylmethyl-phenyl)-amide] are 44%, 93% and 7.16.
As for `CN1CCN(Cc2ccc(NC(=O)c3sc4ncnc5c4c3NC(=O)N5c3ccc(OCc4ccccn4)c(Cl)c3)cc2)CC1` [Cpd 90, 5-[3-chloro-4-(pyridin-2-ylmethoxy)-phenyl]-4-oxo-4,5-dihydro-3H-1-thia-3,5,6,8-tetraaza-acenaphthylene-2-carboxylic acid [4-(4-methyl-piperazin-1-ylmethyl)-phenyl]-amide], in assay [1], the inhibition at 2 µM was 8% and the “c-Src % Inhibition” value was found to be 4%. Further, in assay [2], the inhibition at 1 µM worked out at 82% and the pIC50 is 6.30.
On to `O=C(Nc1ccc(CN2CCCCC2)cc1)c1sc2ncnc3c2c1NC(=O)N3c1ccc(Oc2ccccc2)cc1` [Cpd 96, 4-oxo-5-(4-phenoxy-phenyl)-4,5-dihydro-3H-1-thia-3,5,6,8-tetraaza-acenaphthylene-2-carboxylic acid (4-piperidin-1-ylmethyl-phenyl)-amide], for which the pIC50 in assay [1] is less than 3.70. In assay [2], the inhibition at 1 µM was found to be 98% and the pIC50 is 7.39.
With `O=C(Nc1ccc(CN2CCOCC2)cc1)c1sc2ncnc3c2c1NC(=O)N3c1ccc(Oc2ccccc2)cc1` [Cpd 97, 4-oxo-5-(4-phenoxy-phenyl)-4,5-dihydro-3H-1-thia-3,5,6,8-tetraaza-acenaphthylene-2-carboxylic acid (4-morpholin-4-ylmethyl-phenyl)-amide], the pIC50 in assay [1] was roughly 5.70. Moreover, in assay [2], the inhibition at 1 µM amounted to 97% and the pIC50 is 7.57.
For the compound `CN1CCN(Cc2ccc(NC(=O)c3sc4ncnc5c4c3NC(=O)N5c3ccc(Oc4ccccc4)cc3)cc2)CC1` [Cpd 98, 4-oxo-5-(4-phenoxy-phenyl)-4,5-dihydro-3H-1-thia-3,5,6,8-tetraaza-acenaphthylene-2-carboxylic acid [4-(4-methyl-piperazin-1-ylmethyl)-phenyl]-amide], in assay [1], the pIC50 is 6.23; the “c-Src % Inhibition” value was 63% and 41%. Further, in assay [2], the inhibition at 1 µM stood at 95% and the pIC50 was 7.06.
As for `COc1cc(NC(=O)c2sc3ncnc4c3c2NC(=O)N4c2ccc(Oc3ccccc3)cc2)ccc1OCCN1CCCCC1` [Cpd 100, 4-oxo-5-(4-phenoxy-phenyl)-4,5-dihydro-3H-1-thia-3,5,6,8-tetraaza-acenaphthylene-2-carboxylic acid [3-methoxy-4-(2-piperidin-1-yl-ethoxy)-phenyl]-amide], the pIC50 in assay [1] is less than 3.70; in assay [2] it was 6.95. Also, the inhibition at 1 µM in assay [2] was found to be 95%.
For the compound `O=C(Nc1ccc(CN2CCCCC2)cc1)c1sc2ncnc3c2c1NC(=O)N3c1ccc(Sc2ccccc2)cc1` [Cpd 169, 4-oxo-5-(4-phenylsulfanyl-phenyl)-4,5-dihydro-3H-1-thia-3,5,6,8-tetraaza-acenaphthylene-2-carboxylic acid (4-piperidin-1-ylmethyl-phenyl)-amide], the pIC50 in assay [2] was 7.59.
In the case of `O=C(Nc1ccc(CN2CCOCC2)cc1)c1sc2ncnc3c2c1NC(=O)N3c1ccc(Sc2ccccc2)cc1` [Cpd 178, 4-oxo-5-(4-phenylsulfanyl-phenyl)-4,5-dihydro-3H-1-thia-3,5,6,8-tetraaza-acenaphthylene-2-carboxylic acid (4-morpholin-4-ylmethyl-phenyl)-amide], the pIC50 in assay [2] is 7.25.

The values are drawn from US7579356B2, “Thia-tetraazaacenaphthylene kinase inhibitors” (Janssen Pharmaceutica NV, priority 2005, dated 2009).
